In this experiment the target is T1, human VR1 (Homo sapiens, UniProt Q8NER1).
T1 construct: expressed in transfected cells
The experiment is described as follows: capsaicin-induced Ca2+ influx in the human VR1-transfected CHO cell line (Assay 1). Type of experiment: cell-based. Conditions: 10 nM capsaicin, human VR1-CHOluc9aeq cells. The source says: [Measurement of capsaicin-induced Ca^2+ influx in the human VR1-transfected CHO cell line] (Assay 1)
• (1) Establishment of the Human VR1-CHOluc9aeq Cell Line • Human vanilloid receptor (hVR1) cDNA was cloned from libraries of axotomized dorsal root ganglia (WO 00/29577). The cloned hVR1 cDNA was constructed with pcDNA3 vector and transfected into a CHOluc9aeq cell line. The cell line contains aequorin and CRE-luciferase reporter genes as read-out signals. The transfectants were cloned by limiting dilution in selection medium (DMEM/F12 medium (Gibco BRL) supplemented with 10% FCS, 1.4 mM Sodium pyruvate, 20 mM HEPES, 0.15% Sodium bicarbonate, 100 U/ml penicillin, 100 μg/ml streptomycin, 2 mM glutamine, non-essential amino acids and 2 mg/ml G418). Ca^2+ influx was examined in the capsaicin-stimulated clones. A high responder clone was selected and used for further experiments in the project. The human VR1-CHOluc9aeq cells were maintained in the selection medium and passaged every 3-4 days at 1-2.5×10^5 cells/flask ([…]). • (2) Measurement of Ca^2+ Influx Using FDSS-3000 • Human VR1-CHOluc9aeq cells were suspended in a culture medium which is the same as the selection medium except for G418 and seeded at a density of 1,000 cells per well into 384-well plates (black walled clear-base/Nalge Nunc International). Following the culture for 48 hrs the medium was changed to 2 μM Fluo-3 AM (Molecular Probes) and 0.02% Puronic F-127 in assay buffer (Hank's balanced salt solution (HBSS), 17 mM HEPES (pH7.4), 1 mM Probenecid, 0.1% BSA) and the cells were incubated for 60 min at. 25° C. After washing twice with assay buffer the cells were incubated with a test compound or vehicle for 20 min at 25° C. Mobilization of cytoplasmic Ca^2+ was measured by FDSS-3000 (λex=488 nm, λem=540 nm/Hamamatsu Photonics) for 60 sec after the stimulation with 10 nM capsaicin. Integral R was calculated and compared with controls. [Measurement of the Capsaicin-Induced Ca^2+ Influx in Primary Cultured Rat Dorsal Root Ganglia Neurons] (Assay 2) • (1) Preparation of Rat Dorsal Root Ganglia Neurons • New born Wister rats (5-11 days) were sacrificed and dorsal root ganglia (DRG) was removed. DRG was incubated with 0.1% trypsin (Gibco BRL) in PBS(−) (Gibco BRL) for 30 min at 37° C., then a half volume of fetal calf serum (FCS) was added and the cells were spun down. The DRG neuron cells were resuspended in Ham F12/5% FCS/5% horse serum (Gibco BRL) and dispersed by repeated pipetting and passing through 70 μm mesh Falcon). The culture plate was incubated for 3 hours at 37° C. to remove contaminating Schwann cells. Non-adherent cells were recovered and further cultured in laminin-coated 384 well plates (Nunc) at 1×10^4 cells/50 μl/well for 2 days in the presence of 50 ng/ml recombinant rat NGF (Sigma) and 50 μM 5-fluorodeoxyuridine (Sigma). • (2) Ca^2+ Mobilization Assay • DRG neuron cells were washed twice with HBSS supplemented with 17 mM HEPES (pH 7.4) and 0.1% BSA. After incubating with 2 μM fluo-3AM (Molecular Probe), 0.02% PF127 (Gibco BRL) and 1 mM probenecid (Sigma) for 40 min at 37° C., cells were washed 3 times. The cells were incubated with VR1 antagonists or vehicle (dimethylsulphoxide) and then with 1 μM capsaicin in FDSS-6000 (λex=480 nm, λem=520 nm/Hamamatsu Photonics). The fluorescence changes at 480 nm were monitored for 2.5 min. Integral R was calculated and compared with controls. [Organ Bath Assay to Measure the Capsaicin-Induced Bladder Contraction] (Assay 3)
The data corresponds to the compounds as yielded by solid phase synthesis and thus to levels of purity of about 40 to 90%. For practical reasons, the compounds are grouped in four classes of activity as follows: IC50=A(<or=)0.1 μM<B(<or=)0.5 μM<C(<or=)1 μM<D

Setting [1] is: Table 2, read-out: activity class.
The mark [2] stands for this setting: Table 3, read-out: activity class.
Where [3] appears, read: read-out: In vitro activity class.
The mark [4] stands for this setting: Table 1, read-out: activity class.

Our source for the IC50 values is patent US7612113B2, “Hydroxy tetrahydro-naphthalenylurea derivatives” (Xention Limited, priority 2002, dated 2009).

Read-outs that look alike come from different tables or passages of the source.

T1 sequence (Q8NER1 whole entry): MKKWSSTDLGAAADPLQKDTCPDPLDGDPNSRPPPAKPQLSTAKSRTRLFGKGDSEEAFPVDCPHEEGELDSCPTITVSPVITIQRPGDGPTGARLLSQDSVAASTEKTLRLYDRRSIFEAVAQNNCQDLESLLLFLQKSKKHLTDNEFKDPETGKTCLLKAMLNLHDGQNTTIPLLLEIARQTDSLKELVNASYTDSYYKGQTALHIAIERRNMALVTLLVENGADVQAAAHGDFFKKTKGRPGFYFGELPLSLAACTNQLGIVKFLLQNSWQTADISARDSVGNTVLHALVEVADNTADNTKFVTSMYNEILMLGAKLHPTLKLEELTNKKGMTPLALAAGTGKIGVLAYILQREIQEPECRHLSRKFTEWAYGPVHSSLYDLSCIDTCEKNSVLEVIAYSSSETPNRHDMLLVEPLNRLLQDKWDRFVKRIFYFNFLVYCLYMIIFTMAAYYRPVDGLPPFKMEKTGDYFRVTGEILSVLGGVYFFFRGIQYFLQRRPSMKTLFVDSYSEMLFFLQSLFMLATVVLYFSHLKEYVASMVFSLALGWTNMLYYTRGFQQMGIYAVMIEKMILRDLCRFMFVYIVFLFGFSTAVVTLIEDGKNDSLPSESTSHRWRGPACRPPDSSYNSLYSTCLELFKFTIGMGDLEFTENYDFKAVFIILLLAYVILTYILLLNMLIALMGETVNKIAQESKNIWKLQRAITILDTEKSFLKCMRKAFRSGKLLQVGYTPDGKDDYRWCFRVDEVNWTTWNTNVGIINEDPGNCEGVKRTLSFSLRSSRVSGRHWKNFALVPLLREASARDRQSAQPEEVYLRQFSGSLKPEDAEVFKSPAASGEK

With `Cc1ccc(Oc2ccc(NC(=O)Nc3cccc4c3CC(O)CC4)cc2)cc1` (stereo not shown) [Example 4-38], the IC50 under setting [1] was less than 100 nM.

As to `O=C(NCCc1ccc(Cl)cc1)Nc1cccc2c1CC(O)CC2` (stereo not shown) [Example 4-36], under setting [1], the IC50 is less than 100 nM.

With `CCOC(=O)Cc1ccc(NC(=O)Nc2cccc3c2CC(O)CC3)cc1` (stereo not shown) [Example 4-33], under setting [1], the IC50 lay within 100 to 500 nM.

Consider `CC(C)(NC(=O)Nc1cccc2c1CC(O)CC2)c1ccc(Cl)cc1` (stereo not shown) [Example 4-44], for which, under setting [1], the IC50 was in the range of 100 to 500 nM.

As for `Cc1cc(NC(=O)Nc2cccc3c2CC(O)CC3)ccc1F` (stereo not shown) [Example 5-24], under setting [2], the IC50 was less than 100 nM.

As for `O=C(NCc1ccc(OC(F)(F)F)cc1)Nc1cccc2c1CC(O)CC2` (stereo not shown) [Example 4-1, N-(7-hydroxy-5,6,7,8-tetrahydro-naphthalen-1-yl)-N′-(4-trifluoromethoxy-benzyl)-urea], the IC50 under setting [3] is less than 100 nM.

As for `O=C(NCc1ccc(Cl)c(C(F)(F)F)c1)Nc1cccc2c1CC(O)CC2` (stereo not shown) [Example 4-35], the IC50 under setting [1] is less than 100 nM.

On to `O=C(Nc1cccc2c1CC(O)CC2)NC(c1ccccc1)c1ccccc1` (stereo not shown) [Example 4-43], for which the IC50 under setting [1] is 500 to 1000 nM.

For `O=C(NCc1ccc([N+](=O)[O-])cc1)Nc1cccc2c1CC(O)CC2` (stereo not shown) [Example 4-25], the IC50 under setting [1] is less than 100 nM.

Take `CCc1cccc(NC(=O)Nc2cccc3c2CC(O)CC3)c1` (stereo not shown) [Example 5-23]: under setting [2], the IC50 was less than 100 nM.

On to `Cc1ccc(NC(=O)Nc2cccc3c2CC(O)CC3)cc1` (stereo not shown) [Example 5-7], for which, under setting [2], the IC50 is 100 to 500 nM.

For `O=C(NCc1ccc(C(=O)O)cc1)Nc1cccc2c1CC(O)CC2` (stereo not shown) [Example 4-30], the IC50 under setting [1] lay within 500 to 1000 nM.

Regarding `O=C(NCc1ccc(OC(F)(F)F)cc1)Nc1cccc2c1CC(O)CC2` (stereo not shown) [Example 4-17], the IC50 under setting [1] is less than 100 nM.

For the compound `COc1ccccc1CNC(=O)Nc1cccc2c1CC(O)CC2` (stereo not shown) [Example 4-11], the IC50 under setting [1] lay within 100 to 500 nM.

On to `O=C(Nc1ccccc1F)Nc1cccc2c1CC(O)CC2` (stereo not shown) [Example 5-2], for which, under setting [2], the IC50 fell in the range of 500 to 1000 nM.

Consider `O=C(NCc1c(F)cccc1F)Nc1cccc2c1CC(O)CC2` (stereo not shown) [Example 4-28], for which, under setting [1], the IC50 was in the range of 500 to 1000 nM.

With `O=C(NCc1ccc(C(F)(F)F)cc1)Nc1cccc2c1C[C@@H](O)CC2` [Example 4-5, N-{(S)-7-hydroxy-5,6,7,8-tetrahydro-naphthalen-1-yl}-N′-(4-trifluoromethyl-benzyl)-urea], under setting [3], the IC50 is less than 100 nM.

For `NS(=O)(=O)c1ccc(CNC(=O)Nc2cccc3c2CC(O)CC3)cc1` (stereo not shown) [Example 4-50], under setting [1], the IC50 was 500 to 1000 nM.

Regarding `CSc1ccc(NC(=O)Nc2cccc3c2CC(O)CC3)cc1` (stereo not shown) [Example 5-16], the IC50 under setting [2] lay within 100 to 500 nM.

Consider `O=C(NCCc1ccc(Cl)cc1)Nc1cccc2c1C[C@H](O)CC2` [Example 4-53], for which, under setting [1], the IC50 is less than 100 nM.

Regarding `CCOc1ccc(NC(=O)Nc2cccc3c2CC(O)CC3)cc1` (stereo not shown) [Example 5-14], under setting [2], the IC50 is less than 100 nM.

As to `CN(C)c1ccc(CNC(=O)Nc2cccc3c2CC(O)CC3)cc1` (stereo not shown) [Example 4-34], the IC50 under setting [1] was less than 100 nM.

Turning to `O=C(NCc1ccc(OC(F)(F)F)cc1)Nc1cccc2c1C[C@H](O)CC2` [Example 4-2, N-{(R)-7-hydroxy-5,6,7,8-tetrahydro-naphthalen-1-yl}-N′-(4-trifluoromethoxy-benzyl)-urea], the IC50 under setting [3] was less than 100 nM.

`CC(C)(C)c1ccc(NC(=O)Nc2cccc3c2CC(O)CC3)cc1` (stereo not shown) [Example 5-9]: under setting [2], the IC50 was less than 100 nM.

Turning to `Nc1ccccc1CNC(=O)Nc1cccc2c1CC(O)CC2` (stereo not shown) [Example 4-32], the IC50 under setting [1] was in the range of 500 to 1000 nM.

Consider `O=C(NCCc1ccc(Cl)cc1)Nc1cccc2c1C[C@@H](O)CC2` [Example 4-54], for which the IC50 under setting [1] is less than 100 nM.

Regarding `Nc1ccc(CNC(=O)Nc2cccc3c2CC(O)CC3)cc1` (stereo not shown) [Example 4-31], under setting [1], the IC50 fell in the range of 500 to 1000 nM.

Turning to `N#CCc1ccc(NC(=O)Nc2cccc3c2CC(O)CC3)cc1` (stereo not shown) [Example 4-47], the IC50 under setting [1] lay within 100 to 500 nM.

Consider `COc1ccc(NC(=O)Nc2cccc3c2CC(O)CC3)cc1Cl` (stereo not shown) [Example 5-19], for which the IC50 under setting [2] was less than 100 nM.

As to `O=C(NCc1ccc(C(F)(F)F)cc1)Nc1cccc2c1CC(O)CC2` (stereo not shown) [Example 4-8], the IC50 under setting [1] is less than 100 nM.

On to `Cc1ccc(NC(=O)Nc2cccc3c2CC(O)CC3)cc1C` (stereo not shown) [Example 5-22], for which the IC50 under setting [2] was less than 100 nM.

Turning to `CC(C)(C)c1ccc(CNC(=O)Nc2cccc3c2CC(O)CC3)cc1` (stereo not shown) [Example 4-16], the IC50 under setting [1] is less than 100 nM.

Consider `CC(NC(=O)Nc1cccc2c1CC(O)CC2)c1ccc(Br)cc1` (stereo not shown) [Example 4-42], for which, under setting [1], the IC50 was less than 100 nM.

With `O=C(NCc1ccc(OC(F)(F)F)cc1)Nc1cccc2c1C[C@@H](O)CC2` [Example 4-3, N-{(S)-7-hydroxy-5,6,7,8-tetrahydro-naphthalen-1-yl}-N′-(4-trifluoromethoxy-benzyl)-urea], the IC50 under setting [3] is less than 100 nM.

Take `O=C(NCc1cc(C(F)(F)F)cc(C(F)(F)F)c1)Nc1cccc2c1CC(O)CC2` (stereo not shown) [Example 4-26]: the IC50 under setting [1] is less than 100 nM.

As to `COc1cc(NC(=O)Nc2cccc3c2CC(O)CC3)cc(C(F)(F)F)c1` (stereo not shown) [Example 5-12], the IC50 under setting [2] was less than 100 nM.

Regarding `O=C(NCc1ccc(F)c(F)c1)Nc1cccc2c1CC(O)CC2` (stereo not shown) [Example 4-12], the IC50 under setting [1] was less than 100 nM.

On to `COc1ccc(NC(=O)Nc2cccc3c2CC(O)CC3)cc1OC` (stereo not shown) [Example 5-18], for which the IC50 under setting [2] lay within 100 to 500 nM.

In the case of `O=C(NCc1ccc(C(F)(F)F)c(F)c1)Nc1cccc2c1CC(O)CC2` (stereo not shown) [Example 4-37], under setting [1], the IC50 was less than 100 nM.

Turning to `O=C(Nc1ccc(O)cc1)Nc1cccc2c1CC(O)CC2` (stereo not shown) [Example 5-20], the IC50 under setting [2] lay in the range of 500 to 1000 nM.

For the compound `COc1cc(NC(=O)Nc2cccc3c2CC(O)CC3)cc(OC)c1` (stereo not shown) [Example 2-37], the IC50 under setting [4] was less than 100 nM.

In the case of `O=C(Nc1ccccc1)Nc1cccc2c1CC(O)CC2` (stereo not shown) [Example 2-1, N-phenyl-N′-(7-hydroxy-5,6,7,8-tetrahydro-1-naphthalenyl) urea], the IC50 under setting [3] was 500 to 1000 nM.

Consider `O=C(NCc1ccc(C(F)(F)F)c(NC2CCCC2)c1)Nc1cccc2c1CC(O)CC2` (stereo not shown) [Example 4-51], for which, under setting [1], the IC50 is less than 100 nM.

For `COc1cccc(CNC(=O)Nc2cccc3c2CC(O)CC3)c1` (stereo not shown) [Example 4-13], the IC50 under setting [1] fell in the range of 100 to 500 nM.

Turning to `O=C(NCc1cccc(Br)c1)Nc1cccc2c1CC(O)CC2` (stereo not shown) [Example 4-24], the IC50 under setting [1] is less than 100 nM.

Consider `O=C(NCc1ccc(C(F)(F)F)c(NC2CCCC2)c1)Nc1cccc2c1CC(O)CC2` (stereo not shown) [Example 4-52], for which, under setting [1], the IC50 was less than 100 nM.

As for `O=C(NCc1cccc2ccccc12)Nc1cccc2c1CC(O)CC2` (stereo not shown) [Example 4-46], the IC50 under setting [1] is less than 100 nM.

Consider `Cc1cc(NC(=O)Nc2cccc3c2CC(O)CC3)ccc1Cl` (stereo not shown) [Example 2-36], for which the IC50 under setting [4] is less than 100 nM.

As for `COc1cc(OC)c(CNC(=O)Nc2cccc3c2CC(O)CC3)c(OC)c1` (stereo not shown) [Example 4-23], under setting [1], the IC50 lay within 500 to 1000 nM.

Regarding `O=C(NCc1ccccc1C(F)(F)F)Nc1cccc2c1CC(O)CC2` (stereo not shown) [Example 4-19], the IC50 under setting [1] is less than 100 nM.

Regarding `O=C(Nc1ccc(OC(F)(F)F)cc1)Nc1cccc2c1CC(O)CC2` (stereo not shown) [Example 4-40], under setting [1], the IC50 is less than 100 nM.

As to `O=C(Nc1cccc(Br)c1)Nc1cccc2c1CC(O)CC2` (stereo not shown) [Example 5-5], the IC50 under setting [2] is less than 100 nM.

`CC(NC(=O)Nc1cccc2c1CC(O)CC2)c1ccccc1` (stereo not shown) [Example 4-48]: the IC50 under setting [1] lay in the range of 100 to 500 nM.

On to `COc1ccc(NC(=O)Nc2cccc3c2CC(O)CC3)cc1F` (stereo not shown) [Example 5-17], for which, under setting [2], the IC50 is less than 100 nM.

`O=C(NCc1ccccc1)Nc1cccc2c1CC(O)CC2` (stereo not shown) [Example 4-6]: the IC50 under setting [1] fell in the range of 100 to 500 nM.
